Results taken from patent publication US6790843B1, “C-19-halogen-substituted steroids of the androst-9(11)-ene-series, methods for the production and use thereof” (Schering AG, priority 1999, dated 2004).

What was measured:
human androgen receptor = biological target: T1, human androgen receptor (Homo sapiens, UniProt P10275); test: binding affinity to the androgen receptor (reference standard 3H-methyltrienolone R 1881)
T1 sequence (P10275 1-920): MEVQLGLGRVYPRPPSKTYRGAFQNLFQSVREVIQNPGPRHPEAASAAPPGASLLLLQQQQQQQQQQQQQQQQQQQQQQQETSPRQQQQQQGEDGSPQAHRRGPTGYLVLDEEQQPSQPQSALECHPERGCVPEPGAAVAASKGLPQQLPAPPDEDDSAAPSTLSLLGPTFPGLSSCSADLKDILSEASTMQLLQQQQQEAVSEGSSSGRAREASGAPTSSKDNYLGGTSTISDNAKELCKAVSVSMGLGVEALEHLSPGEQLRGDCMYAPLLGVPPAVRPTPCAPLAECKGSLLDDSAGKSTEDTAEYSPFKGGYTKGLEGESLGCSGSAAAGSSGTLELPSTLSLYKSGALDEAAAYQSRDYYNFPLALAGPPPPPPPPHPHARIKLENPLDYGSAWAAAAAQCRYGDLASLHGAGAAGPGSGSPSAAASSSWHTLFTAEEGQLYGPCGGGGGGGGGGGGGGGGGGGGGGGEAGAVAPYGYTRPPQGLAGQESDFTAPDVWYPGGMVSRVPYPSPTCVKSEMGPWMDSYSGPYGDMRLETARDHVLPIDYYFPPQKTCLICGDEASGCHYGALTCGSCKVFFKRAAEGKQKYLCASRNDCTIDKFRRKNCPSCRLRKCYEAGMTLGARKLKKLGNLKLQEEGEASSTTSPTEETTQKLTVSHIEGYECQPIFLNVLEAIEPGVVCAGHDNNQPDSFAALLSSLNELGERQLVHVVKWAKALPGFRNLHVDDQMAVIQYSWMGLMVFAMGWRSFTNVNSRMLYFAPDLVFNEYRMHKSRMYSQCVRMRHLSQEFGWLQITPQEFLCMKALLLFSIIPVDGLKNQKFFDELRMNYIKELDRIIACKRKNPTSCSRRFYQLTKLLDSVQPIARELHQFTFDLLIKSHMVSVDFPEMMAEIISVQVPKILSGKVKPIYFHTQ

melting point	SMILES	IC50 (human androgen receptor)	affinity to the androgen receptor (in words) (human androgen receptor)
	C[C@]12CC=C3[C@@H](CCC4=CC(=O)CC[C@@]43CI)[C@@H]1CC[C@@H]2O [iodide 6, 17β-Hydroxy-19-iodo-androsta-4,9(11)-dien-3-one]	57 nM	high affinity
126 °C	CCCCCCCSCC[C@]12CC[C@@H]3C(=CC[C@]4(C)[C@@H](O)CC[C@@H]34)[C@@]1(C)CC[C@H](O)C2		
212 °C	CCn1ccnc1SCC[C@]12CC[C@@H]3C(=CC[C@]4(C)[C@@H](O)CC[C@@H]34)[C@@]1(C)CC[C@H](O)C2		

SMILES	melting point	IC50 (human androgen receptor)	affinity to the androgen receptor (in words) (human androgen receptor)
C[C@]12CC=C3[C@@H](CCC4=CC(=O)CC[C@@]43CBr)[C@@H]1CC[C@@H]2O [Example 2, 19-Bromo-17β-hydroxy-androsta-4,9(11)-dien-3-one]	149 °C (dec.)		high affinity
